The numbers were not newly measured in patent publication US20230219928A1, “PREPARATION METHOD FOR AROMATIC ETHER COMPOUND” (Jiangsu Yahong Meditech Co., Ltd., priority 2020, published 2023), which cites them from elsewhere.

For data set [1] the following is noted: background statement.
For data set [2] the following is noted: human, phase II clinical trial conducted by Jiangsu Yahong Meditech in China.

`O=[N+]([O-])c1ccc(O)c2ncccc12` [nitroxoline]: in data set [1], the water solubility result is “very low”. Also, the biological half-life in data set [2] was 1.22-1.44 hours.
